Measured values as given in paper PMC2901518 (British Journal of Pharmacology, 2010).
Numbering of substitutions follows the chain as printed.

Columns and labels:
[1] = target: T1, Y1 receptor STA (S352A, T353A) (Rattus norvegicus, UniProt P21555, S352A/T353A); test: [125I]PYY competition binding, Y1 STA/βarr2 membranes
T1 sequence (P21555 2-382 S352A/T353A): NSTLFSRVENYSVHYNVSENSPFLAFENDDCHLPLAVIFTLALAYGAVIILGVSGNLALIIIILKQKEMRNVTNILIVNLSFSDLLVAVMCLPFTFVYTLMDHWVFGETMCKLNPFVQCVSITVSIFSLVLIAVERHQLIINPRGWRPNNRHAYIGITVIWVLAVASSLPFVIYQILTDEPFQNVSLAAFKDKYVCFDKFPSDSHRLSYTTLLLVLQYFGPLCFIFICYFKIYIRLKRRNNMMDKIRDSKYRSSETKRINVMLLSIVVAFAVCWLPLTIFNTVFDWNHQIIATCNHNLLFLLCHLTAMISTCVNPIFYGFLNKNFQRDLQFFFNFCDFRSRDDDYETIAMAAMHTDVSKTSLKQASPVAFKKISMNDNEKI

Y1 receptor 5A = target: T2, Y1 receptor 5A (Rattus norvegicus, UniProt P21555, S352A/S359A/S362A/T353A/T361A); test: [125I]PYY competition binding, Y1 5A/βarr2 membranes
T2 sequence (P21555 1-382 S352A/T353A/S359A/T361A/S362A): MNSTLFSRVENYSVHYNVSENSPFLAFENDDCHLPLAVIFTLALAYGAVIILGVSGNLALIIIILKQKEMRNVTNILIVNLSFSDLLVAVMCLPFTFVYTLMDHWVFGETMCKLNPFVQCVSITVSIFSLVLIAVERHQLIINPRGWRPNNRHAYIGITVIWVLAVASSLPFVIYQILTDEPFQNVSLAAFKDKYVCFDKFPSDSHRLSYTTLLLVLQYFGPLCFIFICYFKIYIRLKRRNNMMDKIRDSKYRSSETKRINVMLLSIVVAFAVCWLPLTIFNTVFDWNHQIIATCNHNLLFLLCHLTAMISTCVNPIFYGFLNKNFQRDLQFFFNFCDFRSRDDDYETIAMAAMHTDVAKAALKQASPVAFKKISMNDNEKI

Y1 receptor 6A = target: T3, Y1 receptor 6A (Rattus norvegicus, UniProt P21555, S352A/S359A/S362A/T353A/T356A/T361A); test: [125I]PYY competition binding, Y1 6A/βarr2 membranes
T3 sequence (P21555 1-382 S352A/T353A/T356A/S359A/T361A/S362A): T2 sequence (P21555 1-382 S352A/T353A/S359A/T361A/S362A) with T356A

Y2 receptor = target: T4, Y2 receptor (Homo sapiens, UniProt P49146); format: binding
T4 sequence (P49146 1-381): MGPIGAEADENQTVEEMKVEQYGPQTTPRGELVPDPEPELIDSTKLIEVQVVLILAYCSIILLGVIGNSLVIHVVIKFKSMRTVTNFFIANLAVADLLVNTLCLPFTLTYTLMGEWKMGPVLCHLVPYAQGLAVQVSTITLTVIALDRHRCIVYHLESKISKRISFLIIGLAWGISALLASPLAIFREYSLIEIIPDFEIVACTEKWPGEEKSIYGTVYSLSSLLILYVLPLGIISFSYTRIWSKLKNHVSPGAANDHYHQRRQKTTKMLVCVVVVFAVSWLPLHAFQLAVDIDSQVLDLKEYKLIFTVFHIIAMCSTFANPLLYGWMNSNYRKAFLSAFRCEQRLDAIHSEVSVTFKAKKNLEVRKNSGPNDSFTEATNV

Y1 receptor T356A = target: T5, Y1 receptor T356A (Rattus norvegicus, UniProt P21555, T356A); test: [125I]PYY competition binding, Y1 T356A/βarr2 membranes
T5 sequence (P21555 2-382 T356A): T1 sequence (P21555 2-382 S352A/T353A) with A351S, A352T, T355A

Y1 receptor S359A = target: T6, Y1 receptor S359A (Rattus norvegicus, UniProt P21555, S359A); test: [125I]PYY competition binding, Y1 S359A/βarr2 membranes
T6 sequence (P21555 2-382 S359A): T1 sequence (P21555 2-382 S352A/T353A) with A351S, A352T, S358A

[2] = inhibition of [125I]PYY specific binding

Compound: Nc1nc2c(ncn2[C@@H]2O[C@H](COP(=O)(O)OP(=O)(O)OP(O)(O)=S)[C@@H](O)[C@H]2O)c(=O)[nH]1 [GTPγS, guanosine-5′-O-(3-thio)triphosphate]
- GTPγS 1 µM inhibition (%), Y1 STA ([1]; 1 µM GTPγS): 61.4 ± 4.0%
- GTPγS pIC50, Y1 STA [1, 2]: 9.00 ± 0.15
- GTPγS 1 µM inhibition (%), Y1 5A (Y1 receptor 5A; 1 µM GTPγS): 55.7 ± 3.4%
- GTPγS pIC50, Y1 5A (Y1 receptor 5A; [2]): 8.81 ± 0.28
- GTPγS 1 µM inhibition (%), Y1 6A (Y1 receptor 6A; 1 µM GTPγS): 63.2 ± 1.2%
- GTPγS pIC50, Y1 6A (Y1 receptor 6A; [2]): 9.04 ± 0.02
- GTPγS 1 µM inhibition (%), Y2 (Y2 receptor; 1 µM GTPγS): 73.8 ± 3.5%
- GTPγS pIC50, Y2 (Y2 receptor; [2]): 9.19 ± 0.11
- GTPγS 1 µM inhibition (%), Y1 T356A (Y1 receptor T356A; 1 µM GTPγS): 48.3 ± 4.7%
- GTPγS pIC50, Y1 T356A (Y1 receptor T356A; [2]): 8.97 ± 0.17
- GTPγS 1 µM inhibition (%), Y1 S359A (Y1 receptor S359A; 1 µM GTPγS): 54.7 ± 3.5%
- GTPγS pIC50, Y1 S359A (Y1 receptor S359A; [2]): 9.18 ± 0.08
